Source: patent US20240131032A1, “AN ACTIVITY-GUIDED MAP OF ELECTROPHILE-CYSTEINE INTERACTIONS IN PRIMARY HUMAN IMMUNE CELLS” (The Scripps Research Institute, priority 2019, published 2024)

Legend:
TMEM173 [1] = molecular target: T1, TMEM173 (Homo sapiens, UniProt Q86WV6, G230A/H232R/R293Q/R71H); assay: ISRE-luciferase assay in THP-1 Lucia ISG cells; assay type: cell-based; conditions: 24 h
T1 construct: endogenous in cells; host or cells: THP-1 Lucia ISG cells
Procedure: (§1) FIG. 12A is a pie chart showing the fraction of protein targets of active compounds with available crystal structures containing the corresponding liganded cysteine residues. FIG. 12B is a computer-generated model of BPK-21 and BPK-25 interactions with C91 of stimulator of interferon genes protein (STING, or TMEM173). FIG. 12C is a graph of IRF response of THP1-Lucia™ ISG cells. THP-1 Lucia ISG cells were treated with DMSO or BPK-25 in the presence of viral dsDNA (2 μg/mL) for 24 h and the levels of IRF-induced Lucia luciferase were determined using QUANTI-Luc™. Cell viability was measured using CellTiter-Glo™ assay. Luminescence signals for test samples were normalized to DMSO-treated samples and reported as relative light units (RLU)±SEM; n=3/group. […] Relative expression of IL-6, IL-1β, and IP10 (CXCL10) genes was measured by qPCR and normalized to actin. […] GFP-positive cells were further analyzed for CD25 and CD69 expression levels by measuring mean fluorescence intensity of the PE- (PE-CD25) and APC-channels (APC-CD69). […]
THP-1 Lucia ISG cells were resuspended in low-serum growth media (2% FBS) at a density of 5×10^5 cells/mL and treated with BPK-25 or vehicle (DMSO) in the presence of viral dsDNA (2 μg/mL). […] For each cell type and assay, luminescence signals for test article samples were normalized to vehicle-treated samples and reported as relative light units (RLU).

TMEM173 [2] = molecular target: T2, TMEM173 (Homo sapiens, UniProt Q86WV6); assay: TMEM173/STING pathway activation by cGAMP in PBMCs (qPCR, ELISA, Bio-Plex); assay type: cell-based; conditions: BPK-25 10 μM
T2 construct: endogenous in cells; host or cells: primary human T cells
Procedure: as §1
Freshly isolated PBMCs (4×10^6 cells/mL, 1 mL/well), were treated with BPK-25 (10 μM) or vehicle (DMSO) for 6 h in a 24-well plate, after which cGAMP (10 μM) was added to the wells and the cells were incubated for additional 20 h. […] When run on the Bioplex 200 system, […] of supernatant was mixed with 50 μL of beads and quantified against human cytokines standard curves. […]

T2 sequence (Q86WV6 whole entry H232R): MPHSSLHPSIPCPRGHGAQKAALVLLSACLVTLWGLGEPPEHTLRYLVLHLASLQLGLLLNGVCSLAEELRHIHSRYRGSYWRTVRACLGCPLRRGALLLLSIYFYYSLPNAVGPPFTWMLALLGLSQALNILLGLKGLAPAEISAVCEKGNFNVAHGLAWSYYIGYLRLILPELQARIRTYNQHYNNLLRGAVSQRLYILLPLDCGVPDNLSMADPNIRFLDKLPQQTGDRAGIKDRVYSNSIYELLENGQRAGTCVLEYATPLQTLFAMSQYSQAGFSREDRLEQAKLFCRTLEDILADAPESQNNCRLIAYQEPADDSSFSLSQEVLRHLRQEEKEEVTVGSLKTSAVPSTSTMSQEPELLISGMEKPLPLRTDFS
T1 sequence (Q86WV6 whole entry R71H/G230A/H232R/R293Q): as the sequence (Q86WV6 whole entry H232R) above, with R71H, G230A, R293Q counted along it

Compound: C=CC(=O)N(Cc1cccc(Cl)n1)c1ccc(C(=O)Nc2ccccc2)nc1 [BPK-25]
- TMEM173 activation in human monocyte cell line THP1 (TMEM173 [1]): inhibited TMEM173 activation
- TMEM173 activation by cGAMP in primary human PBMCs (TMEM173 [2]): inhibited TMEM173 activation
